# Activity calls are given as the source filed them. The rule behind the calls is not given here.
# Key:
# Mus musculus [1] = experiment: In vivo antitumor activity against the B16 melanoma cell line determined as number of cured out of the number tested at 10 mg/kg dose ( out of 10 mice); assay type: functional
# Mus musculus [2] = experiment: Percent increase in life span (ILS) was measured on P388 cells which were inoculated intraperitoneally in CD2F1 mice at 16 mg/kg; assay type: functional; settings: P388, ip, route intraperitoneal
# Mus musculus [3] = experiment: In vivo antitumor activity against the B16 melanoma cell line determined as number of cured out of the number tested at 8 mg/kg dose ( out of 6 mice); assay type: functional
# Mus musculus [4] = experiment: In vivo antitumor activity against the B16 melanoma cell line expressed as percent increase in life span at 8 mg/kg dose; assay type: functional
# Mus musculus [5] = experiment: In vivo antitumor activity against the L1210 leukemia cell line determined as number of cured out of the number tested at 4 mg/kg dose ( out of 10 mice); assay type: functional
# Mus musculus [6] = species: Mus musculus; experiment: P388 activity determined as number of cured out of the number tested in 6 CD2F1 mice; assay type: functional
# Mus musculus [7] = experiment: In vivo antitumor activity against the L1210 leukemia cell line expressed as percent increase in life span at 4 mg/kg dose; assay type: functional
# Mus musculus [8] = experiment: In vivo antitumor activity against the B16 melanoma cell line expressed as percent increase in life span at 10 mg/kg dose; assay type: functional
# Mus musculus [9] = experiment: In vivo antitumor activity against the L1210 leukemia cell line determined as number of cured out of the number tested at 8 mg/kg dose ( out of 8 mice); assay type: functional
# Mus musculus [10] = experiment: In vivo antitumor activity against the L1210 leukemia cell line expressed as percent increase in life span at 8 mg/kg dose; assay type: functional
# Mus musculus [11] = experiment: In vivo antitumor activity against the M5076 reticulum cell sarcoma expressed as percent increase in life span at 32 mg/kg dose; assay type: functional
# Mus musculus [12] = experiment: Percent increase in life span (ILS) was measured on P388 cells which were inoculated intraperitoneally in CD2F1 mice; assay type: functional
# Mus musculus [13] = experiment: The percent increase in life span on P388 cells which were inoculated intraperitoneally in CD2F1 mice at 200 mg/kg dose placed at ranking order 2; assay type: functional; settings: P388, ip, route intraperitoneal
# Mus musculus [14] = experiment: The percent increase in life span on P388 cells which were inoculated intraperitoneally in CD2F1 mice at 5 mg/kg dose placed at ranking order 1; assay type: functional; settings: P388, ip, route intraperitoneal
# Mus musculus [15] = experiment: The percent increase in life span on P388 cells which were inoculated intraperitoneally in CD2F1 mice at 50 mg/kg dose placed at ranking order 3; assay type: functional; settings: P388, ip, route intraperitoneal
# Mus musculus [16] = experiment: In vivo antitumor activity against the B16 melanoma cell line expressed as percent increase in life span; IA means inactive; assay type: functional, organism-based
# Mus musculus [17] = experiment: In vivo antitumor activity against the L1210 leukemia cell line expressed as percent increase in life span; IA means inactive; assay type: functional, organism-based
# Mus musculus [18] = experiment: In vivo antitumor activity against the M5076 reticulum cell sarcoma expressed as percent increase in life span at 4 mg/kg dose; assay type: functional
# Mus musculus [19] = experiment: In vivo antitumor activity against the B16 melanoma cell line expressed as percent increase in life span at 1 mg/kg dose; assay type: functional
# Mus musculus [20] = experiment: Percent increase in life span (ILS) was measured on P388 cells which were inoculated intraperitoneally in CD2F1 mice at 8 mg/kg; assay type: functional; settings: P388, ip, route intraperitoneal
# [21] = Ability to inhibit the dibutyryl-cAMP-induced change of an immature glioma cell to a mature, differentiated astrocyte by in vitro astrocytoma assay at 10 ug/mL dose (Experiment #1); value may range from 31 to 50; assay type: functional, Mus musculus
# [22] = Ability to inhibit the dibutyryl-cAMP-induced change of an immature glioma cell to a mature, differentiated astrocyte by in vitro astrocytoma assay at 10 ug/mL dose (Experiment #2); value may range from 31 to 50; assay type: functional, Mus musculus
# [23] = Ability to inhibit the dibutyryl-cAMP-induced change of an immature glioma cell to a mature, differentiated astrocyte by in vitro astrocytoma assay at 1 ug/mL dose (Experiment #2) value may range from 16 to 30; assay type: functional, Mus musculus
# [24] = Ability to inhibit the dibutyryl-cAMP-induced change of an immature glioma cell to a mature, differentiated astrocyte by in vitro astrocytoma assay at 1 ug/mL dose (Experiment #1); value may range from 16 to 30; assay type: functional, Mus musculus
# [25] = Ability to inhibit the dibutyryl-cAMP-induced change of an immature glioma cell to a mature, differentiated astrocyte by in vitro astrocytoma assay at 100 ug/mL dose (Experiment #1); value may range from 91 to up; assay type: functional, Mus musculus
# [26] = Ability to inhibit the dibutyryl-cAMP-induced change of an immature glioma cell to a mature, differentiated astrocyte by in vitro astrocytoma assay at 100 ug/mL dose (Experiment #2)value may range from 71 to 90; assay type: functional, Mus musculus
# Mus musculus [27] = experiment: In vivo antitumor activity against the M5076 reticulum cell sarcoma expressed as percent increase in life span; IA means inactive; assay type: functional, organism-based
# Mus musculus [28] = experiment: The percent increase in life span on P388 cells which were inoculated intraperitoneally in CD2F1 mice at 100 mg/kg dose placed at ranking order 2; assay type: functional; settings: P388, ip, route intraperitoneal
# Mus musculus [29] = experiment: The percent increase in life span on P388 cells which were inoculated intraperitoneally in CD2F1 mice at 100 mg/kg dose placed at ranking order 1; assay type: functional; settings: P388, ip, route intraperitoneal
# Mus musculus [30] = experiment: The percent increase in life span on P388 cells which were inoculated intraperitoneally in CD2F1 mice at 240 mg/kg dose placed at ranking order 2; assay type: functional; settings: P388, ip, route intraperitoneal
# Mus musculus [31] = experiment: The percent increase in life span on P388 cells which were inoculated intraperitoneally in CD2F1 mice at 480 mg/kg dose placed at ranking order 1; assay type: functional; settings: P388, ip, route intraperitoneal
structure (smiles),measurement,setting,value
COc1cc([C@@H]2c3cc4c(cc3[C@@H](O[C@@H]3O[C@@H]5CO[C@@H](C)O[C@H]5[C@H](O)[C@H]3O)[C@H]3COC(=O)[C@H]23)OCO4)cc(OC)c1O [ETOPOSIDE],No. of cures,Mus musculus [1],6
same,ILS at 16 mg/kg,Mus musculus [2],219%
same,No. of cures,Mus musculus [3],3
same,ILS at 8 mg/kg,Mus musculus [4],> 176%
same,No. of cures,Mus musculus [5],2
same,No. of cures,Mus musculus [6],3
same,ILS at 4 mg/kg,Mus musculus [7],118%
same,ILS at 10 mg/kg,Mus musculus [8],> 185%
same,No. of cures,Mus musculus [9],4
same,ILS at 8 mg/kg,Mus musculus [10],> 511%
same,ILS at 32 mg/kg,"Mus musculus [11]; Mus musculus, M5076, dose 32 mg/kg",87%
same,ILS,Mus musculus [11]; dose 32 mg/kg,72%
O=c1[nH]cc(F)c(=O)[nH]1 [FLUOROURACIL],ILS,Mus musculus [12],73%
CCOc1ccc(C(C)c2cc3c(cc2OCC)OCO3)cc1 (configuration not stated),ILS at 200 mg/kg,Mus musculus [13],56%
same,ILS,Mus musculus [12],71%
same,ILS at 5 mg/kg,Mus musculus [14],71%
same,ILS at 50 mg/kg,Mus musculus [15],36%
COc1cc([C@@H]2c3cc4c(cc3[C@H](O)[C@H]3COC(=O)[C@H]23)OCO4)cc(OC)c1OC [PODOFILOX],ILS,Mus musculus [16],inactive
same,ILS,Mus musculus [17],inactive
same,ILS at 4 mg/kg,Mus musculus [18],46%
same,ILS at 1 mg/kg,Mus musculus [19],28%
same,ILS at 8 mg/kg,Mus musculus [20],52%
CCOc1cc2c(cc1C(C)c1ccc(OC)cc1)OCO2 (configuration not stated),Astrocyte reversal,[21],50%
same,Astrocyte reversal,[22],50%
same,Astrocyte reversal,[23],30%
same,Astrocyte reversal,[24],30%
same,Astrocyte reversal,[25],91%
same,Astrocyte reversal,[26],90%
same,ILS,Mus musculus [16],inactive
same,ILS,Mus musculus [12],25%
same,ILS,Mus musculus [17],inactive
same,ILS,Mus musculus [27],inactive
same,ILS at 100 mg/kg,Mus musculus [28],23%
same,ILS at 100 mg/kg,Mus musculus [29],25%
CCOc1cc2c(cc1C(C)(C)c1ccc(OC)cc1)OCO2,ILS at 240 mg/kg,Mus musculus [30],25%
same,ILS,Mus musculus [12],35%
same,ILS at 480 mg/kg,Mus musculus [31],35%

# From ChEMBL document CHEMBL1123608, “In vivo antitumor activity of 6-benzyl-1,3-benzodioxole derivatives against the P388, L1210, B16, and M5076 murine models” (1987)
